According to US20140147848A1 (UNIVERSITY OF TSUKUBA, priority 2012, published 2014):
Read-outs that look alike come from different tables or passages of the source.

Assays:
Caco-2 cells [1] = details: 5 ppm and 60 ppm LAS, 24 hours, vs control
Experimental: Total protein was extracted from all three populations 24 hours after treatment, as described in detail below. […] The labeled spots (i.e., the differentially expressed proteins) were chosen based on the results of software analysis designed to assess the respective fold changes of protein levels in the each of the respective spots.
Caco-2 cells were seeded at 2×10^5 cells/ml density in Petri dishes. […] The cells were rinsed three times with ice-cold PBS, scraped gently, and collected in PBS. […] After desalting the protein was extracted using Amicon Ultra centrifugal filters (Ultracel-10K membrane) from Millipore, and the final protein amount was determined using the 2-D Quant kit (GE Healthcare).
The first dimension electrophoresis was carried out on an Ettan IPGphor II (GE Healthcare) apparatus. […] The destained gels were then scanned at 300 dpi resolution, and the images were analyzed with Image Master™ 2D software (ver. 4.9: GE Healthcare). For statistical quantification, three experiments were performed for each experiment. […] Spots were expressed as percentages (% vol) of relative volumes by integrating the value of each pixel in the spot area as described previously in our study (see, e.g., Han et al. 2010). […]

Caco-2 cells [2] = details: LAS 60 ppm
Experimental: (§1) Note that in all figures asterisks represent the significance of the difference compared to the control, e.g., * for p value<0.05 and ** for p value<0.01.
The determination of intracellular ROS was performed using the OxiSelect™ Intracellular ROS Assay Kit, from CELL BIOLABS, INC., according to the manufacturer's protocol. Briefly, Caco-2 cells were cultured in a 96-well plate for 24 h, and then pre-incubated for 60 min with DCFH-DA. […] After a different incubation times of, for example, 1 h, 3 h, 6 h, and 12 h, the fluorescence was read using a plate reader at 480 nm/530 nm excitation/emission wavelengths. The ROS content was determined by comparison with the predetermined DCF standard curve.

Caco-2 cells [3] = test system: Caco-2 cells
Experimental: Cells were then harvested by centrifugation, where the supernatant was discarded and the pellet was resuspended in 1 ml of PBS. Genomic DNA was then purified using commercial DNA purification kit from QIAGEN. 1 μg of DNA sample was added to 2 μl of loading buffer (Wako) and then loaded onto a 2% agarose gel. The electrophoresis was carried out at a constant voltage of 100 V for 20 min and the DNA was finally observed under ultraviolet illumination after staining with ethidium bromide.

Caco-2 cells [4] = test system: Caco-2 cells; remark: listed apart in the source
Experimental: Specifically, Caco-2 cells were treated with concentrations of 0, 1 ppm, 5 ppm, 50 ppm, 60 ppm, and 70 ppm and analyzed by an MTT assay at 24 h, 48 h, and 72 h post-treatment.
The human colon adenocarcinoma cell line Caco-2 was kindly provided by Dr. Makoto Shimizu of the University of Tokyo, Japan. Caco-2 cells were cultured in Dulbecco's modified Eagle's medium (DMEM; Sigma) supplemented with 10% fetal calf serum (FCS), 1% nonessential amino acids (NEAA) and 1% Penicillin/Streptomycin (5 mg/ml each), and incubated in a 95% air and 5% CO2 atmosphere at 37° C. The cells were sub-cultured at a split ratio of 1:3 every 2 days.
Cell viability was assessed using a conventional MTT reduction assay. […] At the respective time points, 10 μl of MTT stock solution (5 mg/ml) was added to the culture medium and incubated for 6 h at 37° C. The formazan was extracted with 100 μl 10% SDS (W/V), and the absorbance was measured with a microliter plate reader at 570 nm wavelength.

Calreticulin (CALR) = assay: Real-time PCR, CALR expression in Caco-2 cells; details: LAS 60 ppm
Experimental: (§2) Caco-2 cells treatment and RNA extraction: Caco-2 cells were seeded at 2×10^5 cells/ml density in Petri dishes. […] Total RNA was then purified using the ISOGEN kit (Nippon GeneCo Ltd., Japan) following the manufacturer's instructions.
(§3) cDNA synthesis: Total RNA was quantified using the Thermo scientific Nanodrop 2000 (USA), and reverse transcription reactions were performed using the Superscript III reverse transcriptase kit (Invitrogen, Carlsbad, Calif.) using 1 μg of total RNA. Briefly, RNA was denatured by incubation at 65° C. for 5 min, with 1 μL oligo (dT) primers, and chilled at 4° C. SuperScript III reverse transcriptase was then added and the reaction mix was incubated at 42° C. for 60 min, and then for 10 min at 70° C.
Real-time PCR: The expression of TPM3, THIO, CALR and HSP7C, respectively, in treated Caco-2 cells was determined by real-time PCR using glyceraldehyde 3-phosphate dehydrogenase (GAPDH) as an internal positive control. Oligos for TPM3 (Hs01900726_g1), THIO (Hs01555212_g1), CALR (Hs00189032_m1), HSP7C (Hs03045200_g1) and GAPDH (Hs02758991_g1) were inventoried gene expression assays (see Table 5). TaqMan real-time PCR amplification reactions were performed in a 20 μl reaction mixtures containing: 10 μl of TaqMan Universal PCR Master Mix UNG (2×), 9 μl of template cDNA (100 ng μl^−1) and 1 μl of the corresponding primer/probe mix, using an AB 7500 fast real-time system (Applied Biosystems). For the amplification, the following cycling conditions were applied: 2 min at 50° C., 10 min at 95° C., and 40 cycles of 15 s at 95° C./1 min at 60° C.

Caco-2 cells [5] = test system: Caco-2 cells; remark: listed apart in the source
Thioredoxin (THIO) = details: LAS 60 ppm
Text: as §1

Caco-2 monolayer = test system: Caco-2 monolayer
Experimental: TEER measurements were obtained by growing the cells at a density of 2·10^5 cells/cm^2 in 6.5-mm diameter collagen coated Transwell (0.4 μm PTFE membrane) on 24-well plates. The medium was changed every 2 days, and the cells were cultured for 12 days to establish monolayer integrity. TEER measurements were performed according to the method of Hashimoto et al. (1997). After a 12-day culture period, the cell monolayer was rinsed with PBS.

[6] = test system: Tropomyosin alpha-3 chain (TPM3); assay: Real-time PCR, TPM3 expression in Caco-2 cells; details: LAS 60 ppm
Experimental: as §2, §3
Real-time PCR: The expression of TPM3, THIO, CALR and HSP7C, respectively, in treated Caco-2 cells was determined by real-time PCR using glyceraldehyde 3-phosphate dehydrogenase (GAPDH) as an internal positive control. […] TaqMan real-time PCR amplification reactions were performed in a 20 μl reaction mixtures containing: 10 μl of TaqMan Universal PCR Master Mix UNG (2×), 9 μl of template cDNA (100 ng μl^−1) and 1 μl of the corresponding primer/probe mix, using an AB 7500 fast real-time system (Applied Biosystems). For the amplification, the following cycling conditions were applied: 2 min at 50° C., 10 min at 95° C., and 40 cycles of 15 s at 95° C./1 min at 60° C.

[7] = test system: Heat shock cognate 71 kDa protein (HSP7C); details: LAS 60 ppm, 12 hours after exposure
Experimental: as §2, §3
Real-time PCR: The expression of TPM3, THIO, CALR and HSP7C, respectively, in treated Caco-2 cells was determined by real-time PCR using glyceraldehyde 3-phosphate dehydrogenase (GAPDH) as an internal positive control. […] TaqMan real-time PCR amplification reactions were performed in a 20 μl reaction mixtures containing: 10 μl of TaqMan Universal PCR Master Mix UNG (2×), 9 μl of template cDNA (100 ng μl^−1) and 1 μl of the corresponding primer/probe mix, using an AB 7500 fast real-time system (Applied Biosystems). […]

Caco-2 cells [8] = test system: Caco-2 cells; remark: listed apart in the source
Experimental: Caspase assay was performed using Immunochemistry Technologies, LLC's Apoptosis detection kit, according to the manufacturer's protocol. […] After treatment, approximately 290-300 μl of each cell suspension was transferred to sterile tubes (e.g., cell density should be around 1×10^7 cells/ml). 10 μl of 30×FLICA solution was added directly to the 290-300 μl cell suspensions, and then incubate cells for 1 hour at 37° C. under 5% CO2, protecting the tubes from light. 2 ml of 1× wash buffer was added to each tube. The tubes were then mix and centrifuge cells at <400×g for 5 minutes at room temperature (RT). The supernatant was carefully remove and discard. The cell pellet was resuspended in 1 ml 1× wash buffer, and the cells were centrifuged again at <400×g for 5 minutes at RT. The supernatant was carefully removed and discarded. The cells were resuspended in 400 μl PBS, about 100 μl of the cell suspensions was placed into each of 2 wells of a black microplate. Finally the fluorescence intensity of sulforhodamine (excitation 550 nm, emission 595 nm) was measured and used a fluorescence plate reader.

sodium dodecylbenzenesulfonate [LAS]
change in protein expression, spots 1, 2, 4, 5, 7, 8, 9, 10, and 12 (Caco-2 cells [1]): up-regulation
change in protein expression, spots 3, 6, 11, and 13 (Caco-2 cells [1]): down-regulation
ROS production (Caco-2 cells [2]; 12 hours post-treatment): returned to baseline levels (or lower)
ROS production (Caco-2 cells [2]; within the first 6 hours after treatment): significant ROS production
DNA fragmentation (Caco-2 cells [3]): no DNA fragmentation was observed
cytotoxic effect on Caco-2 cells (MTT) (Caco-2 cells [4]; 0-70 ppm LAS, 24 h, 48 h, 72 h post-treatment): strong cytotoxic effect
cytotoxic effect on Caco-2 cells (MTT) (Caco-2 cells [4]; LAS 5 ppm): no obvious cytotoxic effect
CALR expression relative to control (Calreticulin (CALR); 3 hours post-treatment): about 1.6 fold
CALR expression relative to control (Calreticulin (CALR); 12 hours post-treatment): decreased to baseline levels
CALR expression relative to control (Calreticulin (CALR); 24 hours after exposure): once again overexpressed
intracellular calcium concentration (Caco-2 cells [5]; 3 and 6 hours post-treatment): decrease of the intracellular calcium concentration
intracellular calcium concentration (Caco-2 cells [5]; 12 hours, continuing until 24 hours post-treatment): excessive increase of the intracellular calcium concentration
THIO overexpression relative to the control (Thioredoxin (THIO); 3 hours): 1.4 fold
THIO overexpression relative to the control (Thioredoxin (THIO); 6 hours): 1.4 fold
THIO overexpression relative to the control (Thioredoxin (THIO); 12 hours): about 1.3 fold
THIO overexpression relative to the control (Thioredoxin (THIO); 24 hours): about 1.1 fold
relative electrical resistance (TEER) (Caco-2 monolayer; 5, 10, 30, and 60 ppm LAS over time): decreased with increasing concentration of LAS
time to decrease in barrier function efficiency (Caco-2 monolayer; higher concentrations of LAS): ≤ 30 min
TPM3 overexpression relative to the control ([6]; 3 hours): 1.2 fold
TPM3 overexpression relative to the control ([6]; 6 hours post-exposure): slightly below that of the control
TPM3 overexpression relative to the control ([6]; after 6 hours (time not given)): ~1.05 fold
HSP7C expression relative to control [7]: significantly overexpressed
cell death pathway (caspase assay) (Caco-2 cells [8]): non-apoptotic pathway
